The record followed here is ChEMBL document CHEMBL1152471 (2008).

What is called MIC is the lowest concentration that inhibits growth of the organism. A high value points to a need for much substance.

In brackets after ≈: the same amount, converted by molar mass.

Holding throughout (type): functional
For test [1], the system named is Mycobacterium tuberculosis. Put plainly: Antituberculosis activity against linezolid-resistant Mycobacterium tuberculosis by bactec 460 TB method.
Test [2] deals with Mycobacterium tuberculosis. The experiment in a line: Antituberculosis activity against linezolid-resistant Mycobacterium tuberculosis by bactec MGIT 960 method.
The test system of test [3] is Mycobacterium tuberculosis. Put plainly: Antituberculosis activity against linezolid-resistant Mycobacterium tuberculosis having mutation in 23S rRNA with G to T base pair exchange at position 2576.
In test [4] the test system is Mycobacterium tuberculosis. The experiment in a line: Antituberculosis activity against linezolid-resistant Mycobacterium tuberculosis without mutation in 23S rRNA.
The subject of test [5] is Mycobacterium tuberculosis. The experiment in a line: Antituberculosis activity against linezolid-resistant Mycobacterium tuberculosis having mutation in 23S rRNA with alteration in domain V.
For test [6], the system named is Mycobacterium tuberculosis. The experiment in a line: Antituberculosis activity against linezolid-resistant Mycobacterium tuberculosis having mutation in 23S rRNA with identical G to T base pair exchange at position 2061.

Take `CC(=O)NC[C@H]1CN(c2ccc(N3CCOCC3)c(F)c2)C(=O)O1` [LINEZOLID]: the MIC in test [1] is ≤ 1 µg/mL; in test [2], ≤ 1 µg/mL; in test [3], 16 µg/mL (≈ 47.4 µM); in test [4], 4 µg/mL (≈ 11.9 µM); in test [5], “>=64 ug ml-1”; in test [6], 32 µg/mL (≈ 94.9 µM).
